Values joined by “and” are separate entries in the source; they are usually repeats but may differ in a detail not shown here. Identical values can stand only once.
Tests used:
[1] = system: patients suffering from vitiligo; assay: Clinical trial in humans, repigmentation in vitiligo
[2] = second part of Table 2
[3] = toxicological, teratologic and clinical trials
[4] = product to be used in the trial
[5] = topical, 3 times a week, 6 months, Melagenina Plus-resistant patients

L-Proline concentration, Fresh ([2]; hydroalcoholic solution just prepared): 1.01 mg/mL
L-Proline concentration, 12 months ([2]; hydroalcoholic solution, 12 months): 1.00 mg/mL
L-Proline concentration, 24 months ([2]; hydroalcoholic solution, 24 months): 1.00 mg/mL
Spectrum determination, Fresh (200-205 nm, hydroalcoholic solution just prepared): 0.051 UA
Spectrum determination, 12 months (200-205 nm, hydroalcoholic solution, 12 months): 0.072UA
Spectrum determination, 24 months (200-205 nm, hydroalcoholic solution, 24 months): 0.071 UA
remains stable after preparing the solution (hydroalcoholic solution, spectrophotometric determinations and aminoacids analysis): 2 years
Compound: O=C(O)[C@@H]1CCCN1 [L-Proline]
reversibility of repigmentant effect once application is discontinued ([1]; human, in vivo): irreversible
Effect Evaluation ([1]; per patient No. 1-21, 1.5 mg/mL hydroalcoholic solution at 80%, topical, 3 times a week, 6 months): Noteworthy (10×) and Poor (2×)
increase of lesions or local or systemic side effect ([1]; topical, 3 times a week, 6 months): no increase of lesions or local or systemic side effect were reported in any of the cases
patients that did not show response to the treatment [1, 5]: 2 patients of 22
patients that showed noteworthy to moderate response [1, 5]: 18 patients
adverse reactions [3]: No severe adverse reactions were reported
dermal and ophthalmic irritability [4]: innocuousness

From patent US20080207733A1, “Composition for the Treatment of Vitiligo” (priority 2003, published 2008)
